Results from paper PMC9828418 (Angewandte Chemie (International Ed. in English), 2022).
Where two headings read alike, the source gives them in different places.

Assays:
[1] = format: physicochemical; details: 0.15 M NaClO4, 25 °C
[2] = Protonation constants of Bi^III complexes by pH-potentiometry; format: physicochemical; details: 0.15 M NaClO4, 25 °C
[3] = 0.6 M NaClO4, 25 °C; cited from earlier work

SMILES	logK BiL (stability constant) [1]	logK BiL (stability constant) ([1]; listed as B)	logK Bi(HL) (protonation constant of complex) [2]	logK BiL (stability constant) [3]	logK BiL (stability constant) ([1]; listed as A)
O=C([O-])CCCCC1(N(CC(=O)[O-])CC(=O)[O-])CN(CC(=O)[O-])CCN(CC(=O)[O-])C1.[Bi+3] [[Bi(AAZTA‐C4‐COO^−)]^2−]	28.75	28.75(8)	4.74(4)	–	–
O=C([O-])CN(CCN(CC(=O)[O-])CC(=O)[O-])CCN(CC(=O)[O-])CC(=O)[O-].[Bi+3] [[Bi(DTPA)]^2−]	–	–	–	29.29	–
CC1(N(CC(=O)[O-])CC(=O)[O-])CN(CC(=O)[O-])CCN(CC(=O)[O-])C1.[Bi+3] [[Bi(AAZTA)]^−]	26.45	–	1.63(3)	–	26.45(6)
